The test system of assay [1] is isolated Dd2-Polδ-PfATP4^G358S P. falciparum trophozoites. As to the kind of experiment: [Na+]cyt measurement (SBFI), Na+ dysregulation. The assay is classed as cell-based, Plasmodium falciparum. Also noted: Final [Na+]cyt reached: unit not given here. Here is the method:
The ratio of the fluorescence intensity recorded at 340 nm and 380 nm (with an emission wavelength of 515 nm) was converted to [Na^+]cyt using a calibration procedure that entailed suspending parasites in solutions of varying [Na^+] containing ionophores. Fluorescence measurements and calibrations were performed at 37 °C, either with individual 1 mL suspensions using a PerkinElmer LS 50B fluorescence spectrometer (for resting [Na^+]cyt measurements for which the data are shown in Supplementary Fig. 7) or in 96-well plates using a Tecan Infinite M1000 PRO plate reader with i-control (version 1.12) software (all other [Na^+]cyt measurements).

The target of assay [2] is T1, TgATP4^G419S-HA (membranes from T. gondii tachyzoites) (Toxoplasma gondii, UniProt B9QMJ0, G419S).
T1 sequence (B9QMJ0 1-1338 G419S): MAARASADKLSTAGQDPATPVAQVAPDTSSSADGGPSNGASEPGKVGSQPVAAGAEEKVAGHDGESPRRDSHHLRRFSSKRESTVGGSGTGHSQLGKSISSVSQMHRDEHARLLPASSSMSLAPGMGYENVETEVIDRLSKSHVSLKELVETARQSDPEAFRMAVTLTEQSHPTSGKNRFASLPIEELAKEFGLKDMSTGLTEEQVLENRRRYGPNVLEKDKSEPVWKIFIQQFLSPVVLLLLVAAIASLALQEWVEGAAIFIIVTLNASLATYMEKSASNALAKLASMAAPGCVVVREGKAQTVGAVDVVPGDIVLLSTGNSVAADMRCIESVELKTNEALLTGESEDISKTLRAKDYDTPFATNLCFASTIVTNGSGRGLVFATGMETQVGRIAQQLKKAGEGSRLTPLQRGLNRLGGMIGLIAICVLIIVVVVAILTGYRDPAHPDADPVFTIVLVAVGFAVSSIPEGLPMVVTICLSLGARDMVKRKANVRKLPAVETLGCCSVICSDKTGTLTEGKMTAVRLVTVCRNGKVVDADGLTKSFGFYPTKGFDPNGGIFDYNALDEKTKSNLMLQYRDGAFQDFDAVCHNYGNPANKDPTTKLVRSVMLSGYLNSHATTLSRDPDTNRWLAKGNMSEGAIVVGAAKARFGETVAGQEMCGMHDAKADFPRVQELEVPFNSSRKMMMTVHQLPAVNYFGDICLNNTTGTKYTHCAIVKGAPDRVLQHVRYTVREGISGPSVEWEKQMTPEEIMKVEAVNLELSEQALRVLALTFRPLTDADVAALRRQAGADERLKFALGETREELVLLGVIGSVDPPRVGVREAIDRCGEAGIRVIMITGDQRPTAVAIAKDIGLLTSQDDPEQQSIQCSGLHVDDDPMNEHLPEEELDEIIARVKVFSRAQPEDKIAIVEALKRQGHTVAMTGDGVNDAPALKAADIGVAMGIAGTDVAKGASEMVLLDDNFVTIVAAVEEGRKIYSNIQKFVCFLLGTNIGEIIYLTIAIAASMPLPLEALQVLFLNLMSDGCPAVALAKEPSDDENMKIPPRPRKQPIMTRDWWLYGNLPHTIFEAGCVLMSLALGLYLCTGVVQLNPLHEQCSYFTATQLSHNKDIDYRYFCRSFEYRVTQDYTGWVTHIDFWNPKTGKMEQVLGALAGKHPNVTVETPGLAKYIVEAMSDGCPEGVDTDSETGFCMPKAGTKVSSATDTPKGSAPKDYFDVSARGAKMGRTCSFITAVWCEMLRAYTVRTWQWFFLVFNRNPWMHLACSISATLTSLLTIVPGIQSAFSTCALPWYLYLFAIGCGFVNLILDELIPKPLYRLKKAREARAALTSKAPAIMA
As to the kind of experiment: Membrane ATPase assay, ATP4-associated (Na+-dependent) ATPase activity. Particulars: for IC50 for ATP4-associated ATPase activity: membranes from TgATP4G419S-HA, mean ± SEM. It is filed as biochemical. On the procedure:
Membranes from isolated P. falciparum or extracellular T. gondii parasites were prepared by lysing parasites in ice-cold deionized water containing a 1:500 dilution of Protease Inhibitor Cocktail Set III (Merck Millipore), then washing the membrane preparation three times in ice-cold deionized water (with protease inhibitors present for the first two washes)[15]. Protein concentrations in the membrane preparations were measured using a Bradford assay. The PiColorLock Gold Phosphate Detection System (Innova Biosciences) was used to measure the production of Pi from hydrolysis of ATP[15]. Membrane preparations were diluted in either a high Na^+ solution (yielding final conditions in the reactions of 150 mM NaCl, 20 mM KCl, 2 mM MgCl2, 50 mM Tris, pH 7.2) or a Na^+-free solution (yielding final conditions of 150 mM choline chloride, 20 mM KCl, 2 mM MgCl2, 50 mM Tris, pH 7.2) to achieve a total protein concentration of 50 μg/mL. […] The reactions were performed at 37 °C, and were initiated by the addition of 1 mM ATP (Na2ATP۰3H2O; MP Biomedicals) and terminated 10 min later by adding 100 μL of reaction mixture (in duplicate) to 25 μL “Gold mix” in a 96-well plate. “Stabiliser” was added 3 min later, and the plates incubated at room temperature in the dark for 60 min before measuring absorbance at 635 nm. Background values (averaged from wells containing all components, but to which ATP was not added until after the membrane was exposed to Gold mix) were subtracted from the data. For each treatment, the ATPase activity associated with the (Na^+-dependent) PfATP4 and TgATP4 proteins was calculated by subtracting data obtained in the low Na^+ condition (containing only the 2 mM Na^+ introduced on addition of 1 mM Na2ATP) from that obtained in the high Na^+ condition.

Where [3] appears, read: Dd2-Polδ-PfATP4G358S, single experiments, source data of Table 1 (nM there), read-out: IC50 for Na+ dysregulation.
[4] abbreviates: Plasmodium falciparum, DD2, 1.5 h, pH 7.1, Dd2-Polδ-PfATP4G358S, ~90 min exposure, 37 °C, pH 7.1, read-out: IC50 for Na+ dysregulation.
Where [5] appears, read: Plasmodium falciparum, DD2, Dd2-Polδ-PfATP4G358S, MEAN, source data of Table 1 (nM there), read-out: IC50 for Na+ dysregulation, MEAN.
Setting [6] is: Plasmodium falciparum, DD2, Dd2-Polδ-PfATP4G358S, single experiments, source data of Table 1 (nM there), read-out: IC50 for Na+ dysregulation.
The mark [7] stands for this setting: TgATP4G419S-HA membranes, source data of Table 1 (nM there).

2 compounds from PMC9525273 (Nature Communications, 2022) can be followed below.

“And” between values parts separate entries of the source, which are not always exact repeats. Equal entries are not always repeated. Where two headings read alike, the source gives them in different places. Some results are limits rather than exact numbers.

For `N#Cc1cc(NC(=O)[C@H]2c3ccccc3C(=O)N(CC(F)(F)F)[C@@H]2c2cccnc2)ccc1F` [(+)-SJ733], the “Final [Na+]cyt reached” value in assay [1] (Dd2-Polδ-PfATP4G358S, [(+)-SJ733] 9.8 nM, MEAN) is 28.4; in assay [1] (Dd2-Polδ-PfATP4G358S, [(+)-SJ733] 9.8 nM, single experiments) it was 25.4 and 25.6 and 34.3; in assay [1] (Dd2-Polδ-PfATP4G358S, [(+)-SJ733] 19.5 nM, MEAN), 28.2; in assay [1] (Dd2-Polδ-PfATP4G358S, [(+)-SJ733] 19.5 nM, single experiments), 24.8 and 26.3 and 33.5; in assay [1] (Dd2-Polδ-PfATP4G358S, [(+)-SJ733] 39.1 nM, MEAN) it was 28.7; in assay [1] (Dd2-Polδ-PfATP4G358S, [(+)-SJ733] 39.1 nM, single experiments), 26.5 and 26.8 and 32.9. Besides, the “Final [Na+]cyt reached” value in assay [1] (Dd2-Polδ-PfATP4G358S, [(+)-SJ733] 78.1 nM, MEAN) is 29.0; in assay [1] (Dd2-Polδ-PfATP4G358S, [(+)-SJ733] 78.1 nM, single experiments) it was 26.6 and 27.0 and 33.4; in assay [1] (Dd2-Polδ-PfATP4G358S, [(+)-SJ733] 156.3 nM, MEAN), 28.6; in assay [1] (Dd2-Polδ-PfATP4G358S, [(+)-SJ733] 156.3 nM, single experiments), 25.8 and 27.2 and 32.8; in assay [1] (Dd2-Polδ-PfATP4G358S, [(+)-SJ733] 312.5 nM, MEAN), 25.7; in assay [1] (Dd2-Polδ-PfATP4G358S, [(+)-SJ733] 312.5 nM, single experiments), 25.5 and 26.1 and 32.5 and 18.8. For the same compound, the “Final [Na+]cyt reached” value in assay [1] (Dd2-Polδ-PfATP4G358S, [(+)-SJ733] 625 nM, MEAN) is 26.8; in assay [1] (Dd2-Polδ-PfATP4G358S, [(+)-SJ733] 625 nM, single experiments), 26.0 and 26.8 and 34.1 and 20.2; in assay [1] (Dd2-Polδ-PfATP4G358S, [(+)-SJ733] 2500 nM, MEAN) it was 28.2; in assay [1] (Dd2-Polδ-PfATP4G358S, [(+)-SJ733] 2500 nM, single experiments), 27.1 and 27.5 and 36.9 and 21.3; in assay [1] (Dd2-Polδ-PfATP4G358S, [(+)-SJ733] 5000 nM, MEAN), 30.8; in assay [1] (Dd2-Polδ-PfATP4G358S, [(+)-SJ733] 5000 nM, single experiments), 29.9 and 28.6 and 41.3 and 23.6. For the same compound, the “Final [Na+]cyt reached” value in assay [1] (Dd2-Polδ-PfATP4G358S, [(+)-SJ733] 10000 nM, MEAN) is 38.0; in assay [1] (Dd2-Polδ-PfATP4G358S, [(+)-SJ733] 10000 nM, single experiments), 34.4 and 33.8 and 55.9 and 28.0; in assay [1] (Dd2-Polδ-PfATP4G358S, [(+)-SJ733] 20000 nM, MEAN), 58.1; in assay [1] (Dd2-Polδ-PfATP4G358S, [(+)-SJ733] 40000 nM, MEAN), 76.7; in assay [1] (Dd2-Polδ-PfATP4G358S, [(+)-SJ733] 40000 nM, single experiments), 88.7 and 92.6 and 48.8. Further, the IC50 was over 20000 nM in assay [1] (setting [3]), over 10000 nM in assay [1] (setting [4]), over 10000 nM in assay [1] (setting [5]) and over 10000 nM in assay [1] (setting [6]). Moreover, the “IC50 for inhibition of ATP4-associated ATPase activity, MEAN” value in assay [2] (setting [7]) is on record as over 4000. The “IC50 for inhibition of ATP4-associated ATPase activity” value in assay [2] (TgATP4G419S-HA membranes, single experiments, source data of Table 1 (nM there)) was over 4000. Also, the “IC50 for ATP4-associated ATPase activity” value in assay [2] is > 4000 (3) nM.
As for `C[C@H]1Cc2c([nH]c3cc(Cl)c(F)cc23)[C@@]2(N1)C(=O)Nc1ccc(Cl)cc12` [Cipargamin], the “Final [Na+]cyt reached” value in assay [1] (Dd2-Polδ-PfATP4G358S, [cipargamin] 4.9 nM, MEAN) was 28.1; in assay [1] (Dd2-Polδ-PfATP4G358S, [cipargamin] 4.9 nM, single experiments), 19.9 and 30.8 and 33.6; in assay [1] (Dd2-Polδ-PfATP4G358S, [cipargamin] 9.8 nM, MEAN), 23.6; in assay [1] (Dd2-Polδ-PfATP4G358S, [cipargamin] 19.5 nM, MEAN), 24.9; in assay [1] (Dd2-Polδ-PfATP4G358S, [cipargamin] 39.1 nM, MEAN), 26.7; in assay [1] (Dd2-Polδ-PfATP4G358S, [cipargamin] 78.1 nM, MEAN), 27.0. Besides, the “Final [Na+]cyt reached” value in assay [1] (Dd2-Polδ-PfATP4G358S, [cipargamin] 156.3 nM, MEAN) was found to be 28.5; in assay [1] (Dd2-Polδ-PfATP4G358S, [cipargamin] 312.5 nM, MEAN), 31.8; in assay [1] (Dd2-Polδ-PfATP4G358S, [cipargamin] 625 nM, MEAN), 35.9; in assay [1] (Dd2-Polδ-PfATP4G358S, [cipargamin] 2500 nM, MEAN) it was 55.3; in assay [1] (Dd2-Polδ-PfATP4G358S, [cipargamin] 5000 nM, MEAN), 78.8; in assay [1] (Dd2-Polδ-PfATP4G358S, [cipargamin] 10000 nM, MEAN) it was 93.3. The IC50 is > 2500 nM and 3420 nM and 2100 nM and 3020 nM in assay [1] (setting [3]); over 2000 nM in assay [1] (setting [4]); over 2000 nM in assay [1] (setting [5]); 3540 nM in assay [1] (setting [6]). Moreover, the “IC50 for inhibition of ATP4-associated ATPase activity, MEAN” value in assay [2] (setting [7]) worked out at 287.6. In addition, the “IC50 for ATP4-associated ATPase activity” value in assay [2] is listed as 288 ± 111 (4) (P = 0.05) nM.
